# In patent US8440209B2, “Adhesive for medical applications and means for haemostasis” (Stryker Trauma GmbH, priority 2006, dated 2013):
# Tested on: S. aureus ATCC 6538
# Assay: agar diffusion test according to Burkhardt
# Type: cell-based
# Details: 18+2 hours at 36° C.
# Description: The agar diffusion test according to Burkhardt (Burkhardt, F. (Hrsg.) Mikrobiologische Diagnostik. Georg-Thieme Verlag Stuttgart, New York 1992, p. 724) was carried out. Mueller-Hinton II-Agar in Stacker Petri dishes (Becton Dickinson Microbiology Systems, Cockeysville, USA) were employed in the test for 15. The strain S. aureus ATCC 6538 was selected as test strain. The initial seed of this test strain was chosen such that after […] of incubation, closely standing, but not confluent, single colonies had developed. After drying of the seeded culture media, the treated collagen non-woven material was applied to the agar surface. After 18+2 hours incubation at 36° C., the inhibition sphere was measured.
substance,measurement,setting,value
Gentamycine,Inhibition sphere against S. aureus ATCC 6538,Treatment 20%,24
same,Inhibition sphere against S. aureus ATCC 6538,Treatment 40%,38
